US5610038A, “Thiangazole, its preparation, compositions and use thereof” (Ciba-Geigy Corporation, priority 1990, dated 1997)
≈ marks a conversion by molar mass, not a printed value.

Legend:
[1] = tested on: benzimidazole-resistant nematodes; details: ruminants, doses tolerated by the host animal; cited from earlier work
adult liver flukes = details: ruminants, doses tolerated by the host animal; cited from earlier work
Botrytis cinerea = assay: Antibiotic activity, agar diffusion test / series dilution test; format: cell-based
Description: (§1) The antibiotic activity is determined by means of an agar diffusion test with reference to the inhibiting areola diameter, or from the culture density in a series dilution test.

Gibberella fujikuroi = assay: as above; format: cell-based
Description: as §1

Mucor hiemalis = assay: as above; format: cell-based
Description: as §1

Pythium debaryanum = assay: as above; format: cell-based
Description: as §1

Rhizopus arrhizus = assay: as above; format: cell-based
Description: as §1

Ustilago maydis = assay: MIC, agar diffusion test / series dilution test; format: cell-based; details: Mycosarcoma maydis
Description: as §1

[2] = tested on: sub-mitochondrial particles of deer heart; assay: NADH oxidation in sub-mitochondrial particles; format: biochemical
[3] = tested on: nematodes such as Haemonchus contortus and Trichostrongylus colubriformis; assay: F.1. Trial with sheep infested with nematodes; format: in vivo; details: single dose
Description: F.1. Trial with sheep infested with nematodes such as Haemonchus contortus and Trichostrongylus colubriformis
Thiangazole is administered in the form of a suspension using a stomach probe or by intraruminal injection to sheep that have previously been artificially infested with nematodes, such as Haemonchus contortus and Trichostrongylus colubriformis. 1 to 3 animals are used for each dose per trial. Each sheep is treated only once with a single dose.
(§2) A first evaluation is made by comparing the number of worm eggs excreted in the faeces of the sheep before and after treatment.
Seven to ten days after treatment the sheep are sacrificed and dissected. The evaluation is carded out by counting the worms remaining in the intestine after the treatment. Sheep simultaneously and similarly infested but untreated are used as a control or comparison.

[4] = tested on: cestodes such as Moniezia benedeni; assay: F.2. Trial with sheep infested with cestodes; format: in vivo; details: dose of less than 20 mg/kg body weight, single dose
Description: F.2. Trial with sheep infested wtih cestodes such as Moniezia benedeni
The active ingredient is administered in the form of a suspension using a stomach probe or by intraruminal injection to sheep that have previously been artificially infested with cestodes, such as Moniezia benedeni. 1 to 3 animals are used for each dose per trial. Each sheep is treated only once with a single dose. Seven to ten days after treatment the sheep are sacrificed and dissected. The evaluation is carded out by counting the worms remaining in the intestine after the treatment. Sheep simultaneously and similarly infested but untreated are used as a control or comparison. In this test thiangazole effects an approximately 90% reduction in cestode infestation at a dose of less than 20 mg/kg body weight.

Dermanyssus gallinae = assay: F.3. Action against Dermanyssus gallinae; format: in vivo; details: 72 h, after 3 days, read-out: activity (mortality of the mites)
Description: F.3. Action against Dermanyssus gallinae
2 to 3 ml of a solution comprising 100 ppm of test compound, and approximately 200 mites at various stages of development, are placed in a glass container that is open at the top. The container is then closed with a cotton wool plug, shaken for 10 minutes until the mites are completely wetted, and then inverted for a short time so that the remaining test solution can be absorbed by the cotton wool. After 3 days, the mortality of the mites is determined as a percentage by counting the number of dead individuals.

Lucille sericata = assay: F.4. Action against Lucille sericata; format: in vivo; details: 10-0.01 ppm, eggs/larvae, 30° C., four days
Description: F.4. Action against Lucille sericata
Freshly deposited eggs of the blow fly Lucille sericata are introduced in small portions (30-50 eggs) into test tubes in which 4 ml of nutrient medium have previously been mixed with 1 ml of test solution in the intermediate dilution required for the final concentration. After inoculation of the culture medium the test tubes are closed with a cotton wool plug and incubated in an incubator at 30° C. for four days. By this time, larvae approximately 1 cm long (stage 3) have developed in the medium that, for comparison, has not been treated. If a compound is active, the larvae are at this time either dead or moribund and clearly retarded. The test is carried out simultaneously at concentrations of from 10-0.01 ppm. The activity is measured at the lowest fully active concentration (LC 100). The test includes both compounds that are effective by contact and those that are effective as an ingested poison. Repellence is also taken into account, since the larvae migrate from the medium and starve.

Lucilia cuprina = assay: F.5. Action against Lucilia cuprina; format: in vivo; details: test solution comprising 16 ppm, evaluation after 96 hours
Description: F.5. Action against Lucilia cuprina Freshly deposited eggs of the blow fly species Lucilia cuprina are introduced in small portions (30-50 eggs) into test tubes in which 4 ml of nutrient medium have previously been mixed with 1 ml of test solution comprising 16 ppm of the test compound. After inoculation of the culture medium the test tubes are closed with a cotton wool plug and incubated in an incubator at 30° C. for four days. By this time, larvae approximately 1 cm long (stage 3) have developed in the untreated medium. If a compound is active the larvae are at this time either dead or clearly retarded. Evaluation is effected after 96 hours.

Fasciola hepatica = assay: F.6. Trial with sheep infested with Fasciola hepatica; format: in vivo; details: doses of less than 50 mg of active ingredient/kg of body weight, single dose
Description: F.6. Trial with sheep infested with Fasciola hepatica
The active ingredient is administered in the form of a suspension using a stomach probe or by intraruminal injection to sheep that have previously been artificially infested with Fasciola hepatica. 3 animals am used for each dose per trial. Each animal is treated only once with a single dose.
as §2
Three to four weeks after treatment the sheep are sacrificed and dissected. The evaluation is carried out by counting the liver flukes remaining in the gall-bladder ducts after treatment. Sheep simultaneously and similarly infested but untreated are used as a control or comparison. The difference in the number of liver flukes counted in the two groups gives the degree of effectiveness of the test compound.

Heliothis virescens = assay: F.7. Ovicidal/larvicidal action against Heliothis virescens; format: in vivo; details: 400 ppm, egg deposits on cotton, 8 days
Description: F.7. Ovicidal/larvicidal action against Heliothis virescens
Egg deposits of Heliothis virescens on cotton are sprayed with an aqueous emulsion comprising 400 ppm of test compound. 8 days later, the percentage of eggs which have hatched and the survival rate of the caterpillars are evaluated in comparison with untreated controls (% reduction in the population).

Aphis craccivora = assay: F.8. Action against Aphis craccivora; format: in vivo; details: pea seedlings, 3 and 6 days, read-out: activity (percentage reduction in the population)
Description: F.8. Action against Aphis craccivora
Pea seedlings are infested with Aphis craccivora and then sprayed with a spray mixture comprising 400 ppm of the test compound, and incubated at 20° C. Evaluation is made 3 and 6 days later. The percentage reduction in the population (% activity) is determined by comparing the number of dead aphids on the treated plants with that on untreated plants.

Tetranychus urticae = assay: F.9 Action against Tetranychus urticae; format: in vivo; details: 144 h, bean plants, 6 days at 25° C., read-out: activity (percentage reduction in the population)
Description: F.9 Action against Tetranychus urticae
Young bean plants are populated with a mixed population of Tetranychus urticae and sprayed one day later with an aqueous emulsion comprising 400 ppm of the test compound. The plants are then incubated for 6 days at 25° C. and then evaluated. The percentage reduction in the population (% activity) is determined by comparing the number of dead eggs, larvae and adults on the treated plants with that on untreated plants.

[5] = tested on: Heliothis virescens caterpillars; assay: F.10. Action against Heliothis virescens caterpillars; format: in vivo; details: 400 ppm, soybean plants, first-stage caterpillars, 6 days
Description: F. 10. Action against Heliothis virescens caterpillars
(§3) Young soybean plants are sprayed with an aqueous emulsion comprising 400 ppm of the test compound. After the spray coating has dried, the soybean plants are populated with 10 Heliothis virescens caterpillars in the first stage and placed in a plastics container. Evaluation is made 6 days later. The percentage reduction in the population or the percentage reduction in feeding damage(% activity) is determined by comparing the number of dead caterpillars and the feeding damage on the treated plants with that on untreated plants.

[6] = tested on: Plutella xylostella caterpillars; assay: F.11. Action against Plutella xylostella caterpillars; format: in vivo; details: cabbage plants, third-stage caterpillars, 3 days
Description: F. 11. Action against Plutella xylostella caterpillars
as §3, with “cabbage” for “soybean”, “Plutella xylostella” for “Heliothis virescens”, “third” for “first”, “3” for “6”, “damage (%” for “damage(%”, “plants. […] The activity is over 80%.” for “plants.”

CCCSc1ccc2nc(NC(=O)OC)[nH]c2c1 [Albendazole]
anthelmintic activity [1]: totally inadequate | anthelmintic activity (adult liver flukes): totally inadequate

CNC(=O)c1nc(C2(C)CSC(C3(C)CSC(C4(C)CSC(C=Cc5ccccc5)=N4)=N3)=N2)oc1C (stereo not shown) [Thiangazole, thiangazole]
growth inhibition of fungus (Botrytis cinerea): inhibits the growth | growth inhibition of fungus (Gibberella fujikuroi): inhibits the growth | growth inhibition of fungus (Mucor hiemalis): inhibits the growth | growth inhibition of fungus (Pythium debaryanum): inhibits the growth | growth inhibition of fungus (Rhizopus arrhizus): inhibits the growth | MIC (Ustilago maydis): 3.2 mg/L (≈ 5.93 µM) | inhibition of NADH oxidation [2]: inhibits NADH oxidation | reduction of nematode infestation ([3]; 20 mg of active ingredient per kg of body weight): virtually complete reduction | reduction in nematode infestation ([3]; stomach probe or intraruminal injection): sharp reduction in nematode infestation | reduction in cestode infestation [4]: approximately 90% | mortality at 100 ppm (Dermanyssus gallinae): ≥ 50% | activity at lowest fully active concentration (LC 100) (Lucille sericata): full activity even at low concentrations | activity against larvae (Lucilia cuprina): very good activity | activity against Fasciola hepatica (liver flukes remaining) (Fasciola hepatica): good activity | ovicidal/larvicidal activity (% reduction in the population) (Heliothis virescens): good activity (The good pesticidal activity of the compounds of formulae I and Ia according to the invention corresponds to a mortality of at least 50-60% of the mentioned pests) | mortality at 400 ppm (Aphis craccivora): ≥ 50% | mortality at 400 ppm (Tetranychus urticae): ≥ 50% | activity (reduction in the population or in feeding damage) [5]: very good activity | activity (reduction in the population or in feeding damage) ([6]; 400 ppm): good activity (The good pesticidal activity of the compounds of formulae I and Ia according to the invention corresponds to a mortality of at least 50-60% of the mentioned pests) | activity at 400 ppm ([6]; Plutella xylostella, 72 h, read-out: % activity (reduction in the population or in feeding damage)): > 80%
